Measured values as given in patent US11014902B2, “MYC G-quadruplex stabilizing small molecules and their use” (The United States of America, as represented by the …, priority 2015, dated 2021).
Like-named read-outs stand apart in the source and are kept apart here.

Key:
L363 cells = experiment: L363 cell viability (MTS); type: cell-based, human; settings: Homo sapiens
Description: Since two thirds of multiple myeloma cases involve deregulated c-MYC expression (Kuehl and Bergsagel, Blood 2012, 120, 2351; Shou, et al., Proc Natl Acad Sci USA 2000, 97, 228), we elected to evaluate the cell viability effects of Compound 1 in a multiple myeloma model. […] This suppression was maintained over 72 hours, which is notable given the characteristic rapid replenishment of the protein—a phenomenon that complicates targeting c-Myc at the protein level (FIG. 4C). This effect was maintained across a genetically diverse set of 4 multiple myeloma lines. We observed decreases in c-MYC translation in all lines tested, and this effect also correlated with decreases in viability (FIG. 4D).
Human multiple myeloma and Burkitt's Lymphoma cell lines L363, CA46, MM-1R, KMS-11, and MM-1S were cultured and authenticated as previously described (Simmons, et al., Molecular oncology 2014, 8, 261). All plasma derived cell lines were cultured in RPMI-1640 (2 mM L-glutamine, 10% fetal bovine serum (FBS), 100 U/ml penicillin, 100 μg/ml streptomycin: Gibco) and incubated at 37° C. with 5% CO2. Viability experiments were performed in quadruplicate on 96-well plates (Costar) at designated time and dose points. MTS reagent was then directly added, incubated at 37° C. for 90 min, and absorbance of MTS formazan was read at 500 nm on an Omega 640 spectrophotometer. Percentage cell viability was normalized to the absorbance of untreated (DMSO) wells. In the case of cells harvested for their protein or RNA, pellets were flash frozen and stored at −80° C. overnight prior to use. […]

[1] = system: RB1, VEGFA, KRAS, HIF1α, BCL2 expression in L363 cells; experiment: Gene expression analysis (Nanostring, qPCR), other G4-associated genes; type: cell-based, human; settings: for expression of other G-quadruplex containing genes (qPCR): L363 cells
Description: Gene expression analysis was performed on a panel of 770 cancer-associated genes in a multiplexed (nanostring) transcriptional assay. In addition to c-MYC itself, several c-Myc target genes were included in the panel, as were a number of other quadruplex-driven genes. […] Additionally, a third data set was collected comparing Compound 1 treatment to JQ-1 (a BET-bromodomain inhibitor) and quarfloxin (another quadruplex-binding small molecule).
The effects of Compound 1 on a number of known quadruplex-driven genes in the panel were examined further (FIG. 6). Expression levels of MYC, RB1, VEGFA, KRAS, and HIF1α, all of which are reported to be under the control of promoter G4s, and are expressed in L363 cells, were included in the panel of genes evaluated by Nanostring as discussed above. […] These changes in gene expression are in line with biophysical measurements of compound affinity. Corresponding data showing similar results is presented for Compounds 1 and 23 in FIGS. 14A and 14B. […] These observations further highlight the ability of Compound 1 and Compound 23 to specifically target the expression of c-Myc and related pathways.
The phenotype for c-MYC genetic knockdown in multiple myeloma was achieved through lentiviral transduction of shRNA for c-MYC, derived from the spinoculation of 293T cells and plasmids grown in STBL3 E. coli, and isolated with the Qiagen Plasmid Midi Kit. Aliquots of the plasmids were generously provided by Art Shaffer. RNA of treated myeloma cells at designated time points was isolated with the Qiagen RNeasy kit, and used with the nCounter Human Cancer Reference Kit (NanoString Technologies), surveying changes in expression for […] cancer-related human genes and 6 reference genes. Quantitative changes in expression were analyzed and grouped in the form of a heat map using the programming language, R. All other quantitative statistical packing was performed in GraphPad Prism.

[2] = system: NCI-60 panel of cancer cell lines; experiment: NCI-60 cell growth (SRB), summary across the panel; type: cell-based; settings: 10 μM, 48 hours; for Growth Percent, Delta: delta across the panel; for Growth Percent, Mean: mean across the panel; for Growth Percent, Range: range across the panel
Description: (§1) This example illustrates that Compounds 1 and 23 can be used in inhibit the growth of c-Myc expressing cancer cell lines in vitro. The NCI-60 panel of cancer cell lines (see Shoemaker, Nat. Rev. Cancer, 6, 813-823, 2006, and dtp.cancer.gov/discovery_development/nci-60/) was assayed for cell growth in the presence of 10 μM Compound 1 or Compound 23 for 48 hours. At 48 hours, the assay was terminated by fixation with TCA and determination of relative cell counts by addition of Sulforhodamine B (SRB, see Alley et al., Cancer Research, 48: 589-601, 1988.). Growth percent was determined by comparison of SRB reading of a duplicate plate of cells taken at the time of compound addition to the SRB reading at the termination of the treatment. The following table provides a summary of the percent of growth of each cell line in the panel compared to control (no treatment), as well as the mean delta and range of percent growth compared to control across the panel of cell lines for each treatment condition.

OVCAR-8 = experiment: NCI-60 cell growth (SRB); type: cell-based; settings: OVCAR-8, Ovarian Cancer; 10 μM, 48 hours
Description: as §1

SF-539 = experiment: NCI-60 cell growth (SRB); type: cell-based; settings: SF-539, CNS Cancer; 10 μM, 48 hours
Description: as §1

HL-60(TB) = experiment: NCI-60 cell growth (SRB); type: cell-based; settings: Leukemia, 10 μM, 48 hours
Description: as §1

T-47D = experiment: NCI-60 cell growth (SRB); type: cell-based; settings: Breast Cancer, 10 μM, 48 hours
Description: as §1

[3] = L-363, viability of L363 cells, read-out: IC50
[4] = 48 hours, 10 μM BRACO-19, 10 μM Compound 1, 7.5 μM Compound 23

SMILES | IC50 (L363 cells; L-363, L363, read-out: IC50) | IC50 (L363 cells; [3]) | expression of other G-quadruplex containing genes (qPCR) ([1]; 5 μM, 24 or 48 hours) | expression of other G-quadruplex containing genes (qPCR) [1, 4] | Growth Percent, Delta [2] | Growth Percent, Mean [2] | Growth Percent, Range [2] | Growth Percent (OVCAR-8) | Growth Percent (SF-539) | Growth Percent (HL-60(TB)) | Growth Percent (T-47D) | IC50 (L363 cells; L-363, 72 h, after 72 hours, read-out: IC50 myeloma cell viability) | expression of other G4-associated genes (nanostring) ([1]; 10 μM, 2 h to 48 h) | expression of other genes (qPCR) ([1]; 5, 10 or 12.5 μM, 48 hours)
Cc1oc2ccc(O)c(CN3CCCCCC3)c2c1C(=O)Nc1ccc(C(F)(F)F)cc1 [Compound 23] | 3.64 µM | 3.6 µM | minimally affecting expression of other G-quadruplex containing genes | minimally affecting expression of other G-quadruplex containing genes | 67.00% | 58.56% | 94.23% | 66.34% | 61.23% | 83.01% | 73.98% |  |  | 
Cc1ccc(NC(=O)c2c(C)oc3ccc(O)c(CN4CCCCCC4)c23)cc1 [Compound 1] |  | 7.6 µM |  | minimally affecting expression of other G-quadruplex containing genes | 32.50% | 88.39% | 60.47% | 89.96% | 93.10% | 92.74% | 92.74% | 7.6 ± 1.1 µM | minimally affected | minimally affected
